Data on 11 compounds can be found in patent US20230012570A1, “BICYCLIC COMPOUND USED AS SELECTIVE ANDROGEN RECEPTOR MODULATOR” (MEDSHINE DISCOVERY INC., priority 2019, published 2023).

For series [1], the target named is T1, androgen receptor (AR) (Homo sapiens, UniProt P10275).
T1 sequence (P10275 1-920): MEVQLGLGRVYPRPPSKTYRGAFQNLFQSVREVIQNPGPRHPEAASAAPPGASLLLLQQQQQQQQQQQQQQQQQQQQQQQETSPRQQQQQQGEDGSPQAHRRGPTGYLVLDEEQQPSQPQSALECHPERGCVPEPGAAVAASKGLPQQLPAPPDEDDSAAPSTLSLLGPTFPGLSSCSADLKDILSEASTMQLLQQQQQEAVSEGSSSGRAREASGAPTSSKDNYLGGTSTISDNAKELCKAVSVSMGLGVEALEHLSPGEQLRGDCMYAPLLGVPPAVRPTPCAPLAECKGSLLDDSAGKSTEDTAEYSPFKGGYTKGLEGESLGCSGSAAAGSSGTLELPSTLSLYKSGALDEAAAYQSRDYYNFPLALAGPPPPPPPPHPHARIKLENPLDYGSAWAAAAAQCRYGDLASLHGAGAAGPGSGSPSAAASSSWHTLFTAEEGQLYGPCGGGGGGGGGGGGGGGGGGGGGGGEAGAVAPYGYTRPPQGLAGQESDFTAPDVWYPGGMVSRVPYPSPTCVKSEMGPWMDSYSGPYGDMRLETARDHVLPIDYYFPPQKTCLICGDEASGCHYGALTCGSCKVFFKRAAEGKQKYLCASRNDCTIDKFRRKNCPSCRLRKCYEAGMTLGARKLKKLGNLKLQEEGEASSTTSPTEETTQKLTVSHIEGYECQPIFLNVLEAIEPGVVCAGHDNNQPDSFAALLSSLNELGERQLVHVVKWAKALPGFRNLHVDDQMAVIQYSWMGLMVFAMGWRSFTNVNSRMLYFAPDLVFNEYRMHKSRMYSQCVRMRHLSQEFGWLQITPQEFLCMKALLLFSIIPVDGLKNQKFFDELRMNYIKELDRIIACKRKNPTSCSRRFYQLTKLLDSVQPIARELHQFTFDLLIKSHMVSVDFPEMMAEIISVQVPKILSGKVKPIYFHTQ
Description: Agonistic effect of test compounds on androgen receptor (AR), LiveBLAzer FRET reporter cell assay. It is filed as cell-based. The protocol: Experimental Embodiment 1: Agonistic Effect of Test Compounds on Androgen Receptor (AR)
1. Preparation of Compounds, Placing in Plates:
1.1 Preparation of compounds: the test compounds were diluted to the working concentration, and each compound was diluted by 4 times with Echo for 10 concentration gradients, and the compounds were added to a 384-well cell plate according to the microplate layout diagram, with 200 nL per well;
1.2 AR cell assay medium: 87% Opti-MEM (reduced serum medium), 10% Dialyzed FBS (dialyzed fetal bovine serum), 1% NEAA (non-essential amino acids), 1% sodium pyruvate and 1% penicillin-streptomycin;
1.3 culture medium, trypsin and Dulbecco's phosphate buffer were preheated in a 37° C. water bath;
1.4 the original medium in the cell culture flask was removed, and the cells were washed once with 6 mL of Dulbecco's phosphate buffer;
1.5 3.5 mL of trypsin was added to the cell culture flask, and the flask was gently shaken to make the trypsin fully contact with the cells, the trypsin was removed; after aspirating the trypsin, the culture flask was placed in a 37° C. incubator containing 5% CO2 for about 1 minute;
1.6 the cells were resuspended with 10 mL of cell detection medium, and about 0.8 mL of cell suspension was taken out for counting (ViCell XR)
1.7 the cell suspension was diluted with culture medium to 2.5×10^5 cells per mL;
1.8 40 !IL of cell suspension was added to each well of the cell plate, and 40 μL of cell culture medium was added to the other wells, and the cells were incubated in a 37° C. incubator containing 5% CO2 for 16 hours.
2. Reading the Board and Analyzing Data:
2.1 Preparation of solution A: 182 μL of DMSO was added to 200 μg of LiveBLAzer™-FRET B/G/g substrate (CCF4-AM). The solution A was packaged and stored in a refrigerator at −20° C.;
2.2 preparation of 6×substrate buffer: 15 μL of solution A was added to 150 μL of solution B, and the mixture was vortexed evenly, then 2335 μL of solution C was added to the above solution and vortexed evenly;
2.3 the cell culture plate was taken out, and 8μL of 6×substrate buffer was added to each well, shaken for 1 minute, and centrifuged at 1000 rpm for 10 seconds; after sealing the membrane, the cells were incubated at 23° C. for 2 hours, and the plate was read with Envision, and the curve EC50 value was fitted by Prism software.

Series [2] is described as follows: Pharmacokinetic test in male SD rats, intravenous and intragastric administration, plasma LC-MS/MS. It is filed as in vivo. As to conditions: rat; for Vd: read-out: Apparent volume of distribution Vdss; for clearance: read-out: Clearance rate Cl; for AUC(0-inf): read-out: Curve area (0-inf) AUC0-inf; for AUC(0-t): read-out: Curve area (0-t) AUC0-last; for half-life: read-out: Half-life T1/2 (converted); for bioavailability: oral, intragastric vs intravenous administration, read-out: Bioavailability F; for Cmax: read-out: Blood drug concentration Cmax; for Tmax: read-out: Peak time Tmax. The text has this: Experimental Embodiment 2: Pharmacokinetic Test of the Compounds of the Present Disclosure
Male SD rats were used as test animals, and LC-MS/MS method was used to determine the drug concentrations in plasma of rats at different time after intravenous and intragastric administration of compound 1A, compound 3A and compound 8A. To study the pharmacokinetic behavior of the compounds in rats and to evaluate their pharmacokinetic characteristics.
2.1 Test Drugs: Compound 1A, Compound 3A and Compound 8A
2.2 Test animals: 12 healthy adult male SD rats, divided into 6 groups with 2 rats in each group. The animal was purchased from Shanghai Sippr-BK laboratory animal Co. Ltd., and the animal production license number was SOCK (Shanghai) 2013-0016.
An appropriate amount of sample was weighed, and appropriate amounts of DMSO, polyethylene glycol-15 hydroxystearate and water were added in turn according to the volume ratio of 10:10:80, and the clarified state of 0.2 mg/mL was reached after stirring and sonication for intravenous administration.
An appropriate amount of sample was weighed and dissolved in 5% Tween 80+90% polyethylene glycol 400+5% polyvinylpyrrolidone K30 solution, and the clarified state of 0.5 mg/mL was reached after stirring and sonication for intragastric administration.
12 male SD rats were divided into 6 groups, and after fasting overnight, groups 1-3 were administered intravenously with a volume of 5 mL/kg; groups 4-6 were administered by gavage with a volume of 10 mL/kg.
After compound 1A, compound 3A and compound 8A were intravenously administered to SD rats, 40 μL of blood was collected at 0.0833, 0.25, 0.5, 1, 2, 4, 8 and 24 hours, respectively, and placed in a test tube containing 2 μL of EDTA-K2. After compound 1A and compound 3A were administered by gavage, 40 μL of blood was collected at 0.25, 0.5, 1, 2, 4, 8 and 24 hours, respectively, and placed in a test tube containing 2 μL of EDTA-K2. The tubes were centrifuged at 4000 rpm for 15 minutes to separate the plasma and stored at −60° C. Animals were allowed to eat 2 hours after administration.
The content of the test compounds in the plasma of rats after intravenous and intragastric administration was determined by LC-MS/MS method. The linear range of the method was 2.00-6000 nmol/L; plasma samples were analyzed after acetonitrile precipitation protein treatment.

The mark [3] stands for this setting: AR cells, 16 hours incubation, 10 concentrations, read-out: EC50, agonist activity on androgen receptor.
The mark [4] stands for this setting: intravenous administration, dose 1.1 (1A), 0.69 (3A), 0.716 (8A) mg/kg.
[5] abbreviates: po, intragastric administration, dose 4.92 (1A), 4.2 (3A), 4.59 (8A) mg/kg.

Read-outs that look alike come from different tables or passages of the source.

`N#Cc1ccc(N2C[C@@H]3COC[C@@H]3[C@H]2C(O)C(F)(F)F)cc1C(F)(F)F` (single isomer, unassigned) [Compound 14A] had an EC50 in series [1] of 0.39 nM.

Regarding `N#Cc1cc(N2CC3CC3C2C(O)C(F)(F)F)cc(F)c1C#N` (stereo not shown) [Mixture of compounds 6A and 6B], the EC50 in series [1] (setting [3]) came to 4.3 nM.

For `N#Cc1ncc(N2CC3CC3C2C(O)C(F)(F)F)cc1Cl` (single isomer, unassigned) [Compound 10A], the EC50 in series [1] (setting [3]) is 55.8 nM.

As for `N#Cc1ncc(N2CC3CC3C2C(O)C(F)(F)F)cc1C(F)(F)F` (single isomer, unassigned) [Compound 8A], the EC50 in series [1] (setting [3]) amounted to 3.25 nM. In series [2] (setting [4]), the Vd was 2.22 L/kg, the clearance was 6.99 mL/min/kg, the AUC(0-inf) turned out to be 4.87 µM·h and the AUC(0-t) amounted to 4.78 µM·h. The half-life in series [2] (setting [4]) is 4.18 h. In series [2], the bioavailability worked out at 41%. Also, in series [2] (setting [5]), the Cmax was 1660 nM, the AUC(0-inf) is 12.9 µM·h, the AUC(0-t) worked out at 12.7 µM·h and the half-life was 3.69 h. The Tmax in series [2] (setting [5]) stood at 4 h.

In the case of `N#Cc1ccc(N2CC3CC3C2C(O)C(F)(F)F)cc1C(F)(F)F` (single isomer, unassigned) [Compound 1A], the EC50 in series [1] amounted to 0.81 nM. In series [2] (setting [4]), the Vd stood at 1.43 L/kg, the clearance was determined as 20.6 mL/min/kg, the AUC(0-inf) turned out to be 2.5 µM·h and the AUC(0-t) was determined as 2.47 µM·h. Besides, the half-life in series [2] (setting [4]) is 1.37 h. Also, in series [2], the bioavailability came to 11%. Further, in series [2] (setting [5]), the Cmax was 223 nM, the AUC(0-t) is 1.24 µM·h and the Tmax worked out at 4 h.

With `N#Cc1ncc(N2CC3C(C2C(O)C(F)(F)F)C3(F)F)cc1C(F)(F)F` (stereo not shown) [Mixture of compounds 12A and 12B], in series [1] (setting [3]), the EC50 worked out at 6.33 nM.

Regarding `N#Cc1c(F)cc(N2CC3CC3C2C(O)C(F)(F)F)cc1Cl` (single isomer, unassigned) [Compound 5A], the midpoint of the response in series [1], the EC50, lay at 0.37 nM.

In the case of `COc1cc(N2CC3CC3C2C(O)C(F)(F)F)cnc1C#N` (single isomer, unassigned) [Compound 11A], the concentration for a half-maximal effect (EC50) in series [1] (setting [3]) stood at 135 nM.

As for `N#Cc1ccc(N2CC3CC3C2C(O)C(F)(F)F)cc1C(F)F` (stereo not shown) [Mixture of compounds 2A and 2B], the half-maximal effective concentration (EC50) in series [1] is 8.8 nM.

The compound `N#Cc1c(F)cc(N2CC3CC3C2C(O)C(F)(F)F)cc1C(F)(F)F` (single isomer, unassigned) [Compound 7A] yielded an EC50 in series [1] of 0.53 nM.

With `N#Cc1ncc(N2CC3CC3C2C(O)C(F)(F)F)cc1OC(F)F` (single isomer, unassigned) [Compound 9A], the EC50 in series [1] (setting [3]) was found to be 47.8 nM.
